According to US12064427B2, “Pharmaceutical compositions comprising (S)-4-(4-(4-(((2-(2,6-dioxopiperidin-3-yl)-1-oxoisoindolin-4-yl)oxy)methyl)benzyl)piperazin-1-yl)-3-fluorobenzonitrile and methods of using the same” (Celgene Corporation, priority 2019, dated 2024):
Values belong to the molecule of their own block, whether it stands above or below them.

Assays:
[1] = Water activity testing; format: physicochemical
From the text: Water activity is a measure of how tightly bound the water is within a substance. To measure water activity, a sample is placed in a sealed vessel which is allowed to reach equilibrium. The final relative humidity (RH) in the vessel is reported as a fraction called “Aw”. Pure water has an Aw of 1.00. […] HygroLab 3 Bench Top Indicator was used to determine water activity testing. Before testing the samples, the equipment is calibrated at different relative humidity levels using RH standards (0% RH, 35% RH, and 80% RH) and at different temperatures to ensure accuracy of the probes. A known amount of sample is sealed inside the sample cell by twisting the cap in downward direction. The starting temperature is recorded before beginning the test. When the change in temperature before and after the test is not more than 0.5° C. record Aw.

[2] = Binary drug-excipient compatibility study; settings: binary mixture with Compound 1, open dish, 50° C./75% RH, 3 and 6 weeks vs 5° C. control
[3] = tested on: α1 adrenergic receptor; test: α1 adrenergic receptor binding at 10 μM ([3H]prazosin, cerebral cortex membranes); parameters: species or system rat; settings: inhibition of control radioligand binding
Description: (§1) α1 Adrenergic and Dopamine D2 Receptors. Methods: Binding and functional assays for al adrenergic and dopamine D2 receptors were performed by Eurofins Cerep according to their methods.
α1 Adrenergic Receptor. Binding at 10 μM. The binding assay evaluated the affinity of test article for the non-selective al adrenergic receptor in rat cerebral cortex. Membrane homogenates of cerebral cortex were incubated in duplicate for 60 minutes at room temperature with 0.25 nM [^3H]prazosin in the absence or presence of test articles at 10 μM. After the incubation period, samples were filtered through glass fiber filters, the filters dried and then counted for radioactivity using a scintillation counter. Results are expressed as mean percent inhibition of control radioligand binding.

[4] = acidifiers evaluated; cited from earlier work
[5] = tested on: OPM2; test: Cell proliferation assay (CellTitre-Glo, 120 h); settings: Homo sapiens, OPM-2, 120 h, read-out: OPM-2 120 h IC50
[6] = Two-stage dissolution (precipitation risk) of 2 mg BIC; format: physicochemical; settings: based on two-stage dissolution findings
Description: The precipitation risk of prototype BIC formulations were studied by a two-stage method (Stage 1 under sink condition and Stage 2 under non-sink condition) for high strength (2 mg).
A two-stage dissolution study was carried out on prototype formulations, wherein the dissolution medium for Stage 1 was 0.01N HCl. […] Based on the two-stage dissolution findings the precipitation risk is considered low for Compound 1.

[7] = tested on: OPM2-P10; test: Cell proliferation assay (CellTitre-Glo, 120 h); settings: Homo sapiens, read-out: OPM-2.P10 120 h IC50
[8] = tested on: NCI-H929-1051; test: Cell proliferation assay (CellTitre-Glo, 120 h); settings: Homo sapiens, read-out: NCI-H929.1051 120 h IC50
[9] = tested on: MM cell lines; test: Cell proliferation assay (CellTitre-Glo, 120 h), four lines together; settings: Homo sapiens, read-out: antiproliferative IC50 values
[10] = tested on: NCI-H929; test: Cell proliferation assay (CellTitre-Glo, 120 h); settings: Homo sapiens, NCI-H929, 120 h, read-out: NCI-H929 120 h IC50
[11] = target: T1, dopamine D2S receptor (Homo sapiens, UniProt P14416); test: Dopamine D2S receptor binding at 10 μM (transfected HEK-293 membranes); settings: inhibition of control radioligand binding
T1 construct: host or cells: HEK-293
Description: as §1
Dopamine D2 Receptor. Binding at 10 μM. The binding assay evaluated the affinity of test articles for the dopamine D2 receptor in transfected human embryonic kidney (HEK)-293 cells. For determining the binding in the D2S receptor assay, test article was incubated with 0.3 nM [^3H] methylspiperone or 1 nM [^3H] 7-hydroxy-2-N,N-dipropylaminotetralin (7-OH-DPAT). [^3H] Methylspiperone at 0.3 nM also was used as control ligand in the D2L binding assay. Cell membrane homogenates were incubated in duplicate at room temperature for 60 minutes with ligand in the absence or presence of test articles at 10 μM. After the incubation period, samples were filtered through glass fiber filters, the filters dried and then counted for radioactivity using a scintillation counter. Results are expressed as mean percent inhibition of control radioligand binding.

T1 sequence (P14416 1-414 isoform P14416-2): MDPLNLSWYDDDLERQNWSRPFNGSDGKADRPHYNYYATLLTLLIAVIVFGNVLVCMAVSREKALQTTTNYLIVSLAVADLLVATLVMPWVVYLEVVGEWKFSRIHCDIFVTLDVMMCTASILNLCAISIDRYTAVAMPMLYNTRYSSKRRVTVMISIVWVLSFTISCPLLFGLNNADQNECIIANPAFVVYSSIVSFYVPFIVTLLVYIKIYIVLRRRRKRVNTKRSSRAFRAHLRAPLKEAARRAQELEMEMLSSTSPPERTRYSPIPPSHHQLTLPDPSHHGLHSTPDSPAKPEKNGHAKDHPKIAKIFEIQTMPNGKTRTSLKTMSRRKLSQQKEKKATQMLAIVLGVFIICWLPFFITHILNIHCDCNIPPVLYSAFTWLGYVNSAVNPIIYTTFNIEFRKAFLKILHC

Compound: N#Cc1ccc(N2CCN(Cc3ccc(COc4cccc5c4CN([C@H]4CCC(=O)NC4=O)C5=O)cc3)CC2)c(F)c1 [Form K of Compound 1, (S)-4-(4-(4-(((2-(2,6-dioxopiperidin-3-yl)-1-oxoisoindolin-4-yl)oxy)methyl)benzyl)piperazin-1-yl)-3-fluorobenzonitrile]
RH at which Form K converts to an anhydrous form [1]: < 20%

compatibility of excipient with the drug substance (chemical degradation, chiral purity) [2]: more compatible acidifier
Compound: O=C(O)/C=C/C(=O)O [fumaric acid]

Adrenergic α1 % Inh. (@10 μM) [3]: 102%
Compound: O=C1CCC(N2Cc3c(OCc4ccc(CN5CCN(c6ccc(F)cc6F)CC5)cc4)cccc3C2=O)C(=O)N1 (racemic) [Compound A, 3-(4-((4-((4-(2,4-difluorophenyl)piperazin-1-yl)methyl)benzyl)oxy)-1-oxoisoindolin-2-yl)piperidine-2,6-dione]

compatibility of excipient with the drug substance (chemical degradation, chiral purity) [2]: chemically incompatible
Compound: O=C(O)CCC(=O)O [succinic acid]
pKa [4]: 4.18

Compound: OC[C@@H](O)[C@@H](O)[C@H](O)[C@H](O)CO [Mannitol]
compatibility of excipient with the drug substance (chemical degradation, chiral purity) [2]: compatible, with some hydrolytic chemical degradation

Compound: CCCCCCCCCCCCOS(=O)(=O)[O-].[Na+] [sodium lauryl sulfate (SLS), sodium lauryl sulfate]
compatibility of excipient with the drug substance (chemical degradation, chiral purity) [2]: loss of chiral purity and increase in chemical degradation chiefly by hydrolysis

Compound: OC[C@H]1O[C@@H](O[C@H]2[C@H](O)[C@@H](O)C(O)O[C@@H]2CO)[C@H](O)[C@@H](O)[C@H]1O (stereo partly shown) [Lactose]
compatibility of excipient with the drug substance (chemical degradation, chiral purity) [2]: compatible with little decrease in chiral purity

Compound: N#Cc1ccc(N2CCN(Cc3ccc(COc4cccc5c4CN([C@H]4CCC(=O)NC4=O)C5=O)cc3)CC2)c(F)c1 [Compound 1, (S)-4-(4-(4-(((2-(2,6-dioxopiperidin-3-yl)-1-oxoisoindolin-4-yl)oxy)methyl)benzyl)piperazin-1-yl)-3-fluorobenzonitrile]
IC50 [5]: 0.07 nM
precipitation risk [6]: low
IC50 [7]: 4.3 nM
IC50 [8]: 1 nM
IC50 [9]: 0.07 to 4.3 nM
IC50 [10]: 0.07 nM
Dopamine D2S % Inh. (@10 μM) [11]: 55/52

compatibility of excipient with the drug substance (chemical degradation, chiral purity) [2]: chemically compatible
Compound: CCCCCCCCCCCCCCCCCC(=O)O [Stearic Acid]
